Measurements taken from ChEMBL document CHEMBL1142587, “Rhizochalin A, a novel two-headed sphingolipid from the sponge Rhizochalina incrustata” (J Nat Prod, 2005).
≈ marks a conversion by molar mass, not a printed value.

Tested on: Ehrlich
Experiment: Cytotoxicity against mouse Ehrlich cells
Type: functional, cell-based

C[C@@H](N)[C@H](O)CCCCCCCC(=O)CCCCCCCCCCCCCC[C@@H](O[C@@H]1O[C@H](CO)[C@H](O)[C@H](O)[C@H]1O)[C@@H](C)N [RHIZOCHALIN]
IC50: 10 µg/mL (≈ 15.8 µM)
